Data as given in US6395293B2, “Biodegradable implant precursor” (Atrix Laboratories, priority 1989, dated 2002).

Key:
[1] = Cumulative release of flurbiprofen from implant matrix at different polymer concentrations; type: physicochemical; settings: about 5% flurbiprofen; for cumulative release: about 55% poly(DL-lactide); for cumulative percent release: polymer concentration about 45%
Source text: The release rate of the bioactive agent from the implant matrix may also be adjusted by varying the concentration of the polymer in the polymer solution. For example, the more dilute the polymer concentration, the more readily the bioactive agent will be released from the implant matrix. For example, in a system containing about 5% flurbiprofen and a polymer concentration of about 55% poly(DL-lactide), a cumulative release of about 11.4% at day 1 and about 23% at day 7 may be provided. With a polymer concentration of about 45%, the cumulative percent release is about 23% at day 1 and about 40% at day 7.

[2] = Ex vivo release of bioactive agent from poly(DL-lactide) implant matrix, with and without release rate modification agent; type: physicochemical
Source text: The use of a release rate modification agent may either decrease or increase the release of the bioactive agent in the range of multiple orders of magnitude (e.g., 1 to 10 to 100), preferably up to a ten-fold change, as compared to the release of a bioactive agent from a solid matrix without the release rate modification agent. For example, naltrexone and doxycycline are substantially completely released from a polymer matrix comprised of poly(DL-lactide) within about 2-3 days ex vivo. With the addition of a release rate modification agent such as ethyl heptanoate which is hydrophobic to the polymer solution, and formation of the implant matrix through interaction of the polymer solution and an aqueous medium, the release rate of naltrexone or doxycycline can be slowed to produce substantially complete release of the drug within about seven days. With the inclusion of a greater amount of a release rate modification agent into the polymer solution, the time period of the release can be increased to about fourteen days. Other release rate modification agents which are hydrophilic such as polyethylene glycol may increase the release of the bioactive agent. […]

| cumulative release ([1]; day 1) | cumulative release ([1]; day 7) | cumulative percent release ([1]; day 1) | cumulative percent release ([1]; day 7) | SMILES | time period of the release ([2]; poly(DL-lactide) matrix with a greater amount of release rate modification agent) | time to substantially complete release from polymer matrix ([2]; poly(DL-lactide) matrix with ethyl heptanoate added as release rate modification agent) |
| --- | --- | --- | --- | --- | --- | --- |
| about 11.4% | about 23% | about 23% | about 40% | CC(C(=O)O)c1ccc(-c2ccccc2)c(F)c1 (stereo not drawn) [flurbiprofen] |  |  |
|  |  |  |  | O=C1CC[C@@]2(O)[C@H]3Cc4ccc(O)c5c4[C@@]2(CCN3CC2CC2)[C@H]1O5 [naltrexone] | about fourteen | about seven |
